Laboratory results as given in patent publication US7883723B2, “Water soluble chitosan nanoparticle for delivering an anticancer agent and preparing method thereof” (priority 2004, dated 2011).
Like-named read-outs stand apart in the source and are kept apart here.

Test system: CT-26 mourine tumor cells
Settings: for survival rate of mice: FIG. 8
Experimental: Female BALB/c mice (average weight: 20 g) were injected subcutaneously in the flank with CT-26 mourine tumor cells (5×10^4 cells/mouse). When the tumor was growing to the size of 3 mm×3 mm, the mice were divided into two groups; an experimental group and a control group. Each group was filled with 8 mice having a tumor and they were marked in their ears for the observation. 15 days after the transplantation, the administration (an intravenous injection) of drug and vehicle began. Each test drug was administered both with low dose of 2 mg/kg and with high dose of 10 mg/kg every three days four times total for 12 days. Only vehicle (cremophor:dehydrated ethyl alcohol, 1:1 v/v) was administered to a control group. Death rate of mice was checked every day and the growth of a tumor was measured using caliper measurement device at two or three day interval. Tumor volume was calculated by the following Formula 2. Tumor volume: mm^3=(Length×Width^2)/2 <Formula 2>
A drug or a vehicle was injected into tail vein of a mouse two weeks after tumor transplantation.
Tumor volume was measured from the 15th day after tumor cell transplantation.

## CC(=O)O[C@H]1C(=O)[C@@]2(C)[C@H]([C@H](OC(=O)c3ccccc3)[C@]3(O)C[C@H](OC(=O)[C@H](O)[C@@H](NC(=O)c4ccccc4)c4ccccc4)C(C)=C1C3(C)C)[C@]1(OC(C)=O)CO[C@@H]1C[C@@H]2O [paclitaxel]
10 mg/kg i.v., CT-26 tumor mice, FIG. 9
  time for which tumor growth was inhibited before regrowth: 30 days
High dose 10 mg/kg i.v. every three days four times, CT-26 tumor mice
  survival rate of mice: not much different from each other
High dose 10 mg/kg i.v., CT-26 tumor mice, FIG. 9
  tumor volume / anticancer activity: remarkably decreased
Low dose 2 mg/kg i.v. every three days four times, CT-26 tumor mice
  survival rate of mice: not much different from each other
Low dose 2 mg/kg i.v., CT-26 tumor mice, FIG. 9
  tumor volume / tumor growth: not much different between them
mouse, in vivo
  weight changes of mice: not significantly different
